Target: T1, human histamine H3 receptor (Homo sapiens, UniProt Q9Y5N1)
T1 construct: expressed in transfected cells; host or cells: CHO K1 cells carrying the pSwitch regulatory plasmid, transfected with pGeneH3, induced with mifepristone; clone 3H3
Experiment: Histamine H3 functional antagonist assay ([35S]GTPγS SPA on membranes)
Type: biochemical
Details: membranes of CHO K1 cells expressing human histamine H3; histamine 0.3 μM; read-out: antagonism (pKb) (converted)
Source text: A membrane preparation containing histamine H3 receptors may be prepared in accordance with the following procedures:
(i) Generation of Histamine H3 Cell Line
DNA encoding the human histamine H3 gene (Huvar, A. et al. (1999) Mol. Pharmacol. 55(6), 1101-1107) was cloned into a holding vector, pCDNA3.1 TOPO (InVitrogen) and its cDNA was isolated from this vector by restriction digestion of plasmid DNA with the enzymes BamH1 and Not-1 and ligated into the inducible expression vector pGene (InVitrogen) digested with the same enzymes. The GeneSwitch™ system (a system where in transgene expression is switched off in the absence of an inducer and switched on in the presence of an inducer) was performed as described in U.S. Pat. Nos. 5,364,791; 5,874,534; and 5,935,934. Ligated DNA was transformed into competent DH5α E. coli host bacterial cells and plated onto Luria Broth (LB) agar containing Zeocin™ (an antibiotic which allows the selection of cells expressing the sh ble gene which is present on pGene and pSwitch) at 50 μg ml^−1. Colonies containing the re-ligated plasmid were identified by restriction analysis. DNA for transfection into mammalian cells was prepared from 250 ml cultures of the host bacterium containing the pGeneH3 plasmid and isolated using a DNA preparation kit (Qiagen Midi-Prep) as per manufacturers guidelines (Qiagen).
CHO K1 cells previously transfected with the pSwitch regulatory plasmid (InVitrogen) were seeded at 2×10e6 cells per T75 flask in Complete Medium, containing Hams F12 (GIBCOBRL, Life Technologies) medium supplemented with 10% v/v dialysed foetal bovine serum, L-glutamine, and hygromycin (100 μg ml^−1), 24 hours prior to use. Plasmid DNA was transfected into the cells using Lipofectamine plus according to the manufacturers guidelines (InVitrogen). 48 hours post transfection cells were placed into complete medium supplemented with 500 μg ml^−1 Zeocin™.
10-14 days post selection 10 nM Mifepristone (InVitrogen), was added to the culture medium to induce the expression of the receptor. 18 hours post induction cells were detached from the flask using ethylenediamine tetra-acetic acid (EDTA; 1:5000; InVitrogen), following several washes with phosphate buffered saline pH 7.4 and resuspended in Sorting Medium containing Minimum Essential Medium (MEM), without phenol red, and supplemented with Earles salts and 3% Foetal Clone II (Hyclone). Approximately 1×10e7 cells were examined for receptor expression by staining with a rabbit polyclonal antibody, 4a, raised against the N-terminal domain of the histamine H3 receptor, incubated on ice for 60 minutes, followed by two washes in sorting medium. Receptor bound antibody was detected by incubation of the cells for 60 minutes on ice with a goat anti rabbit antibody, conjugated with Alexa 488 fluorescence marker (Molecular Probes). Following two further washes with Sorting Medium, cells were filtered through a 50 μm Filcon™ (BD Biosciences) and then analysed on a FACS Vantage SE Flow Cytometer fitted with an Automatic Cell Deposition Unit. Control cells were non-induced cells treated in a similar manner. Positively stained cells were sorted as single cells into 96-well plates, containing Complete Medium containing 500 μg ml^−1 Zeocin™ and allowed to expand before reanalysis for receptor expression via antibody and ligand binding studies. One clone, 3H3, was selected for membrane preparation.
(ii) Membrane Preparation from Cultured Cells
All steps of the protocol are carried out at 4° C. and with pre-cooled reagents. The cell pellet is resuspended in 10 volumes of buffer A2 containing 50 mM N-2-hydroxyethylpiperazine-N′-2-ethanesulfonic acid (HEPES) (pH 7.40) supplemented with 10e-4M leupeptin (acetyl-leucyl-leucyl-arginal; Sigma L2884), 25 μg/ml bacitracin (Sigma B0125), 1 mM ethylenediamine tetra-acetic acid (EDTA), 1 mM phenylmethylsulfonyl fluoride (PMSF) and 2×10e-6M pepstain A (Sigma). […]

T1 sequence (Q9Y5N1 whole entry): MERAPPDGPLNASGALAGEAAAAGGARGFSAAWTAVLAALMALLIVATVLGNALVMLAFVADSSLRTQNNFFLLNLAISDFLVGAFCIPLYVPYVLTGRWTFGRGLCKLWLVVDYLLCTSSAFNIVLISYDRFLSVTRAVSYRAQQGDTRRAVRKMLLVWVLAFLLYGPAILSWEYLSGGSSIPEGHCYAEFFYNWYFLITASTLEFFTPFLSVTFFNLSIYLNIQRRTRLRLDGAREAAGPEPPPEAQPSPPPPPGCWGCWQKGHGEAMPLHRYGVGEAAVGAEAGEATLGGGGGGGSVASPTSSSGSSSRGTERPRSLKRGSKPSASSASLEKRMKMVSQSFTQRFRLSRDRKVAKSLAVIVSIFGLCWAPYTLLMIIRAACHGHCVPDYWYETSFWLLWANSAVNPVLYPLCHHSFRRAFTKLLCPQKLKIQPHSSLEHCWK

| SMILES | Kb |
| --- | --- |
| N#Cc1ccc(C(=O)Nc2ccc3c(c2)CCN(C2CCC2)CC3)cc1 [Example 2, 4-Cyano-N-(3-cyclobutyl-2,3,4,5-tetrahydro-1H-3-benzazepin-7-yl)benzamide] | < 316 pM |
| O=C(Nc1ccc2c(c1)CCN(C1CCC1)CC2)c1ccc(-c2ccccn2)cc1 [Example 8, N-(3-Cyclobutyl-2,3,4,5-tetrahydro-1H-3-benzazepin-7-yl)-4-(2-pyridinyl)benzamide] | < 316 pM |
| O=C(Nc1ccc2c(c1)CCN(C1CCC1)CC2)c1ccc(-c2cncnc2)cc1 [Example 29, N-(3-Cyclobutyl-2,3,4,5-tetrahydro-1H-3-benzazepin-7-yl)-4-(5-pyrimidinyl)benzamide] | < 316 pM |
| O=C(Nc1ccc2c(c1)CCN(C1CCC1)CC2)c1ccc(-n2cnnn2)cc1 [Example 33, N-(3-Cyclobutyl-2,3,4,5-tetrahydro-1H-3-benzazepin-7-yl)-4-(1H-tetrazol-1-yl)benzamide] | < 316 pM |
| N#Cc1ccc(-c2ccc(C(=O)Nc3ccc4c(c3)CCN(C3CCC3)CC4)cc2)cn1 [Example 34, 4-(6-Cyano-3-pyridinyl)-N-(3-cyclobutyl-2,3,4,5-tetrahydro-1H-3-benzazepin-7-yl)benzamide] | < 316 pM |
| Cc1ccc(C(=O)Nc2ccc3c(c2)CCN(C2CCC2)CC3)cn1 [Example 37, N-(3-Cyclobutyl-2,3,4,5-tetrahydro-1H-3-benzazepin-7-yl)-6-methylnicotinamide] | < 316 pM |
| O=C(Nc1ccc2c(c1)CCN(C1CCC1)CC2)c1ccc(N2CCOCC2)nc1 [Example 44, N-(3-Cyclobutyl-2,3,4,5-tetrahydro-1H-3-benzazepin-7-yl)-6-(4-morpholinyl)-3-pyridinecarboxamide] | < 316 pM |
| O=C(Nc1ccc2c(c1)CCN(C1CCC1)CC2)c1ccc(N2CCNC2=O)cc1 [Example 88, N-(3-Cyclobutyl-2,3,4,5-tetrahydro-1H-3-benzazepin-7-yl)-4-(2-oxo-1-imidazolidinyl)benzamide] | < 316 pM |
| N#Cc1ccc(-c2ccc(C(=O)Nc3ccc4c(c3)CCN(C3CCC3)CC4)cn2)cc1 [Example 98, 6-(4-Cyanophenyl)-N-(3-cyclobutyl-2,3,4,5-tetrahydro-1H-3-benzazepin-7-yl)-3-pyridinecarboxamide] | < 316 pM |
| O=C(Nc1ccc2c(c1)CCN(C1CCC1)CC2)c1cnc(N2CCCCC2)cn1 [Example 113, N-(3-Cyclobutyl-2,3,4,5-tetrahydro-1H-3-benzazepin-7-yl)-5-(1-piperidinyl)-2-pyrazinecarboxamide] | < 316 pM |
| O=C(Nc1ccc2c(c1)CCN(C1CCC1)CC2)N1CCCc2ccccc21 [Example 148, N-(3-Cyclobutyl-2,3,4,5-tetrahydro-1H-3-benzazepin-7-yl)-3,4-dihydro-1(2H)-quinolinecarboxamide] | < 316 pM |
